Measurements as given in ChEMBL document CHEMBL1201862, “PubChem BioAssay data set” (2004).
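48-hour exposure; five concentrations; linearly interpolated endpoints. At the GI50, growth is halved.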 Calls of active or inactive are those of the source. No stated cut-off is given here; in the data, active = GI50 up to about 1.1 µM and inactive = higher.

What was measured:
Assay in all cases: NCI tumour cell line growth inhibition, 48 h
[1] = tested on: HOP-92
[2] = tested on: NCI-H226
[3] = tested on: CAKI-1
[4] = tested on: HCT-116
[5] = tested on: SK-MEL-2
[6] = tested on: ACHN
[7] = tested on: UO-31
[8] = tested on: NCI-H460
[9] = tested on: 786-0
[10] = tested on: U-251
[11] = tested on: IGROV-1
[12] = tested on: SF-268
[13] = tested on: SF-295
[14] = tested on: SN12C
[15] = tested on: TK-10
[16] = tested on: MOLT-4
[17] = tested on: HOP-62
[18] = tested on: NCI-H23
[19] = tested on: NCI-H522

Measured: GI50

Cc1noc(/N=C2\C=C(Nc3onc(C)c3C)C(=O)c3ccccc32)c1C
inactive: [1] > 100 µM | [2] > 100 µM | [3] > 100 µM | [4] 95.5 µM | [5] 48.1 µM | [6] > 100 µM | [7] 17.6 µM | [8] > 100 µM | [9] > 100 µM | [10] 46.1 µM | [11] > 100 µM | [12] 86.3 µM | [13] > 100 µM | [14] > 100 µM | [15] > 100 µM | [16] > 100 µM | [17] > 100 µM | [18] 27.5 µM

COC(=O)c1s/c(=N\C(=S)N(C)C)n(-c2ccc(Cl)cc2)c1C(=O)OC
inactive: [2] > 100 µM | [3] 59.2 µM | [4] > 100 µM | [5] > 100 µM | [6] > 100 µM | [7] > 100 µM | [8] 71.8 µM | [9] > 100 µM | [10] > 100 µM | [11] > 10 µM | [12] > 100 µM | [13] > 100 µM | [19] 49 µM | [14] > 100 µM | [15] > 100 µM | [16] > 100 µM | [17] 70.3 µM | [18] > 100 µM

O=C(N/N=C\c1cccc(O)c1)c1ccncc1
inactive: [1] > 100 µM | [3] > 100 µM | [4] > 100 µM | [5] > 100 µM | [6] > 100 µM | [7] > 100 µM | [8] > 100 µM | [9] > 100 µM | [10] > 100 µM | [11] > 100 µM | [12] > 100 µM | [13] > 100 µM | [19] > 100 µM | [14] > 100 µM | [15] > 100 µM | [16] > 100 µM | [17] > 100 µM | [18] > 100 µM

COc1ccc(OC(C(=O)O)C(C)C)c2c1CCCC2=O (centres undefined)
inactive: [3] > 100 µM | [4] > 100 µM | [5] > 100 µM | [6] > 100 µM | [7] > 100 µM | [8] > 100 µM | [9] > 100 µM | [10] > 100 µM | [11] > 100 µM | [12] > 100 µM | [13] > 100 µM | [19] > 100 µM | [14] > 100 µM | [15] > 100 µM | [16] > 100 µM | [17] > 100 µM | [18] > 100 µM

NC12CC3CC(C1)CC(Cl)(C3)C2
inactive: [1] > 100 µM | [4] > 100 µM | [5] > 100 µM | [6] > 100 µM | [7] > 100 µM | [8] > 100 µM | [9] > 100 µM | [10] > 100 µM | [11] > 100 µM | [19] > 100 µM | [15] > 100 µM | [16] > 100 µM | [17] > 100 µM | [18] > 100 µM

COC(=O)c1nc(N)nc(C(=O)OC)c1C(=O)c1ccccc1
inactive: [1] 96.8 µM | [4] > 100 µM | [5] > 100 µM | [6] > 100 µM | [7] > 100 µM | [8] > 100 µM | [9] > 100 µM | [10] > 100 µM | [11] > 100 µM | [12] > 100 µM | [13] > 100 µM | [19] > 100 µM | [14] > 100 µM | [15] > 100 µM | [16] > 100 µM | [18] > 100 µM

CCOc1ccc(NC(=O)CC2SC(N)=NC2=O)cc1 (centres undefined)
inactive: [1] 55.8 µM | [2] > 100 µM | [4] > 100 µM | [5] > 100 µM | [6] > 100 µM | [7] > 100 µM | [8] > 100 µM | [9] > 100 µM | [10] > 100 µM | [11] > 100 µM | [12] > 100 µM | [13] > 100 µM | [14] > 100 µM | [15] > 100 µM | [16] > 100 µM | [17] > 100 µM | [18] > 100 µM

CC1=NOC(=O)C1/N=N/c1ccc(Br)c(C)c1 (centres undefined)
inactive: [1] 17.3 µM | [2] 25.5 µM | [3] 16.1 µM | [4] 17.7 µM | [5] 16.3 µM | [6] 17.8 µM | [8] 23.9 µM | [9] 20 µM | [10] 18.5 µM | [11] 19.2 µM | [12] 22.1 µM | [13] 23 µM | [14] 18.2 µM | [15] 18.6 µM | [16] 18.4 µM | [17] 22.3 µM | [18] 21.6 µM

CC(=O)OC12c3ccccc3C1CCCC21OCCCO1 (centres undefined)
inactive: [2] > 100 µM | [3] > 100 µM | [4] > 100 µM | [5] > 100 µM | [6] > 100 µM | [7] > 100 µM | [8] > 100 µM | [9] > 100 µM | [10] > 100 µM | [11] > 100 µM | [12] > 100 µM | [13] > 100 µM | [19] > 100 µM | [14] > 100 µM | [15] > 100 µM | [16] > 100 µM | [17] > 100 µM | [18] > 100 µM

CN(Cc1ccccc1)C(=NC#N)N(C)Cc1ccccc1
inactive: [1] > 100 µM | [3] > 100 µM | [4] > 100 µM | [5] > 100 µM | [6] > 100 µM | [7] > 100 µM | [8] > 100 µM | [9] > 100 µM | [10] > 100 µM | [11] > 100 µM | [12] > 100 µM | [13] > 100 µM | [19] > 100 µM | [14] > 100 µM | [15] > 100 µM | [17] > 100 µM | [18] > 100 µM

CC(C)(C)C1=CC(=N/N=c2\scc(-c3ccccc3)n2Cc2ccccc2)C=C(C(C)(C)C)C1=O
inactive: [2] > 100 µM | [3] > 100 µM | [4] > 100 µM | [5] > 100 µM | [6] > 100 µM | [7] > 100 µM | [8] > 100 µM | [9] > 100 µM | [10] > 100 µM | [12] > 100 µM | [13] > 100 µM | [14] > 100 µM | [16] > 100 µM | [17] > 100 µM | [18] > 100 µM

C[N+](C)(C)C.FC(F)(F)C1(C(F)(F)F)O[SiH-]2(OC(C(F)(F)F)(C(F)(F)F)c3ccccc32)c2ccccc21
inactive: [2] 4.86 µM | [3] 26.4 µM | [5] 17.7 µM | [6] 22.8 µM | [7] 14.6 µM | [8] 8.97 µM | [9] 16.7 µM | [10] 5.4 µM | [13] 4.81 µM | [19] 22.1 µM | [14] 18.1 µM | [15] 16.9 µM | [16] 11.7 µM | [18] 11 µM
